Data: article PMC8206213, “An L-2-hydroxyglutarate biosensor based on specific transcriptional regulator LhgR” (Nature Communications, 2021)
“And” between values parts separate entries of the source, which are not always exact repeats. Identical values can stand only once.

Assay: LHGFR expressed in E. coli BL21(DE3), response to exogenous L-2-HG (time course and dose-response)
Type: cell-based
Settings: Fig. 5a
Method: To characterize the sensitivity and specificity of LHGFR expressed in E. coli BL21(DE3), 90 μL cell suspensions following 8 h carbon starvation were mixed with 10 μL increasing concentrations of L-2-HG or other compounds, and then added into a black 96-well plate (total 100 μL/per well), the fluorescence intensities were determined using an EnSight microplate reader (PerkinElmer, USA) and the following instrument settings: excitation at 430 nm, emission at 485 nm (mTFP) and 528 nm (Venus), time intervals of 5 min, the temperature at 37 °C, and shake at 180 rpm.

Structure (SMILES): O=C(O)CC[C@H](O)C(=O)O [L-2-HG, L-2-Hydroxyglutarate]
- Emission ratio (100 μM L-2-HG, 45 min): 1.032 and 1.026 and 1.029
- Emission ratio (100 μM L-2-HG, 50 min): 1.0383 and 1.034 and 1.036
- Emission ratio (100 μM L-2-HG, 55 min): 1.032 and 1.026 and 1.035
- Emission ratio (100 μM L-2-HG, 60 min): 1.021 and 1.025 and 1.037
- Emission ratio (100 μM L-2-HG, 65 min): 1.0313 and 1.027 and 1.042
- Emission ratio (100 μM L-2-HG, 70 min): 1.0328 and 1.039 and 1.045
- Emission ratio (100 μM L-2-HG, 75 min): 1.033 and 1.036 and 1.056
- Emission ratio (100 μM L-2-HG, 80 min): 1.038 and 1.023 and 1.047
- Emission ratio (100 μM L-2-HG, 85 min): 1.027 and 1.0315 and 1.0551
- Emission ratio (100 μM L-2-HG, 90 min): 1.039 and 1.022 and 1.053
- Emission ratio (200 μM L-2-HG, 0 min): 0.9917 and 0.9725 and 0.9805
- Emission ratio (200 μM L-2-HG, 5 min): 1.014 and 1.003 and 1.0079
- Emission ratio (200 μM L-2-HG, 10 min): 1.023 and 1.0171 and 1.02
- Emission ratio (200 μM L-2-HG, 15 min): 1.025 and 1.029 and 1.038
- Emission ratio (200 μM L-2-HG, 20 min): 1.048 and 1.05 and 1.039
- Emission ratio (200 μM L-2-HG, 25 min): 1.049 and 1.058 and 1.042
- Emission ratio (200 μM L-2-HG, 30 min): 1.046 and 1.049 and 1.051
- Emission ratio (200 μM L-2-HG, 35 min): 1.046 (2×) and 1.055
- Emission ratio (200 μM L-2-HG, 40 min): 1.05 and 1.054 and 1.06
- Emission ratio (200 μM L-2-HG, 45 min): 1.052 and 1.0481 and 1.064
- Emission ratio (200 μM L-2-HG, 50 min): 1.061 and 1.056 and 1.069
- Emission ratio (200 μM L-2-HG, 55 min): 1.06 and 1.0497 and 1.072
- Emission ratio (200 μM L-2-HG, 60 min): 1.062 and 1.046 and 1.073
- Emission ratio (200 μM L-2-HG, 65 min): 1.05 and 1.055 and 1.074
- Emission ratio (200 μM L-2-HG, 70 min): 1.061 and 1.042 and 1.07
- Emission ratio (200 μM L-2-HG, 75 min): 1.068 and 1.046 and 1.072
- Emission ratio (200 μM L-2-HG, 80 min): 1.063 and 1.037 and 1.071
- Emission ratio (200 μM L-2-HG, 85 min): 1.058 and 1.051 and 1.076
- Emission ratio (200 μM L-2-HG, 90 min): 1.065 and 1.04 and 1.07
- Emission ratio (1 mM L-2-HG, 0 min): 1.009 and 0.986 and 0.9798
- Emission ratio (1 mM L-2-HG, 5 min): 1.043 and 1.0226 and 1.019
- Emission ratio (1 mM L-2-HG, 10 min): 1.061 and 1.055 and 1.04
- Emission ratio (1 mM L-2-HG, 15 min): 1.087 and 1.082 and 1.067
- Emission ratio (1 mM L-2-HG, 20 min): 1.121 and 1.102 and 1.088
- Emission ratio (1 mM L-2-HG, 25 min): 1.134 and 1.124 and 1.105
- Emission ratio (1 mM L-2-HG, 30 min): 1.1596 and 1.147 and 1.142
- Emission ratio (1 mM L-2-HG, 35 min): 1.168 and 1.165 and 1.162
- Emission ratio (1 mM L-2-HG, 40 min): 1.202 and 1.191 and 1.172
- Emission ratio (1 mM L-2-HG, 45 min): 1.22 and 1.2003 and 1.196
- Emission ratio (1 mM L-2-HG, 50 min): 1.242 and 1.221 and 1.214
- Emission ratio (1 mM L-2-HG, 55 min): 1.254 and 1.245 and 1.226
- Emission ratio (1 mM L-2-HG, 60 min): 1.262 and 1.251 and 1.2291
- Emission ratio (1 mM L-2-HG, 65 min): 1.264 and 1.242 and 1.229
- Emission ratio (1 mM L-2-HG, 70 min): 1.261 and 1.241 and 1.2295
- Emission ratio (1 mM L-2-HG, 75 min): 1.265 and 1.246 and 1.229
- Emission ratio (1 mM L-2-HG, 80 min): 1.265 and 1.238 and 1.24
- Emission ratio (1 mM L-2-HG, 85 min): 1.257 and 1.244 and 1.238
- Emission ratio (1 mM L-2-HG, 90 min): 1.253 and 1.243 (2×)
- Emission ratio (2 mM L-2-HG, 0 min): 1.001 and 0.9869 and 0.9858
- Emission ratio (2 mM L-2-HG, 5 min): 1.042 and 1.028 and 1.0185
- Emission ratio (2 mM L-2-HG, 10 min): 1.085 and 1.067 and 1.059
- Emission ratio (2 mM L-2-HG, 15 min): 1.125 and 1.11 and 1.101
- Emission ratio (2 mM L-2-HG, 20 min): 1.179 and 1.162 and 1.146
- Emission ratio (2 mM L-2-HG, 25 min): 1.241 and 1.208 and 1.197
- Emission ratio (2 mM L-2-HG, 30 min): 1.288 and 1.254 and 1.257
- Emission ratio (2 mM L-2-HG, 35 min): 1.301 and 1.278 and 1.2733
- Emission ratio (2 mM L-2-HG, 40 min): 1.333 and 1.31 and 1.292
- Emission ratio (2 mM L-2-HG, 45 min): 1.337 and 1.329 and 1.307
- Emission ratio (2 mM L-2-HG, 50 min): 1.347 and 1.335 and 1.324
- Emission ratio (2 mM L-2-HG, 55 min): 1.344 and 1.327 and 1.336
- Emission ratio (2 mM L-2-HG, 60 min): 1.352 and 1.339 and 1.329
- Emission ratio (2 mM L-2-HG, 65 min): 1.34 and 1.338 and 1.3346
- Emission ratio (2 mM L-2-HG, 70 min): 1.362 and 1.355 and 1.346
- Emission ratio (2 mM L-2-HG, 75 min): 1.365 and 1.3372 and 1.347
- Emission ratio (2 mM L-2-HG, 80 min): 1.351 and 1.344 (2×)
- Emission ratio (2 mM L-2-HG, 85 min): 1.353 and 1.367 and 1.357
- Emission ratio (2 mM L-2-HG, 90 min): 1.364 and 1.351 and 1.361
- Emission ratio (10 mM L-2-HG, 0 min): 0.9626 and 0.9634 and 0.9687
- Emission ratio (10 mM L-2-HG, 5 min): 1.087 and 1.079 and 1.06
- Emission ratio (10 mM L-2-HG, 10 min): 1.2277 and 1.2165 and 1.18
- Emission ratio (10 mM L-2-HG, 15 min): 1.322 and 1.305 and 1.285
- Emission ratio (10 mM L-2-HG, 20 min): 1.375 and 1.367 and 1.334
- Emission ratio (10 mM L-2-HG, 25 min): 1.391 and 1.39 and 1.353
- Emission ratio (10 mM L-2-HG, 30 min): 1.418 and 1.395 and 1.38
- Emission ratio (10 mM L-2-HG, 35 min): 1.427 and 1.411 and 1.3928
- Emission ratio (10 mM L-2-HG, 40 min): 1.439 and 1.431 and 1.3904
- Emission ratio (10 mM L-2-HG, 45 min): 1.426 and 1.425 and 1.4013
- Emission ratio (10 mM L-2-HG, 50 min): 1.427 and 1.438 and 1.392
- Emission ratio (10 mM L-2-HG, 55 min): 1.431 (2×) and 1.402
- Emission ratio (10 mM L-2-HG, 60 min): 1.432 and 1.435 and 1.413
- Emission ratio (10 mM L-2-HG, 65 min): 1.425 and 1.426 and 1.404
- Emission ratio (10 mM L-2-HG, 70 min): 1.4381 and 1.438 and 1.417
- Emission ratio (10 mM L-2-HG, 75 min): 1.426 and 1.4264 and 1.415
- Emission ratio (10 mM L-2-HG, 80 min): 1.4478 and 1.43 and 1.416
- Emission ratio (10 mM L-2-HG, 85 min): 1.446 and 1.432 and 1.415
- Emission ratio (10 mM L-2-HG, 90 min): 1.432 and 1.427 and 1.418
